How the values were obtained:
MV4-11 = assay: Cell viability by Cell Titer GLO, MV4-11; assay type: cell-based; settings: then 48 h inhibitor
Protocol: (§1) MOLM13 and MV4-11 are MLL fusion and FLT3-ITD positive, AML cells lines. Both cell lines were treated with 20 nM of alvocidib, a Cdk inhibitor, for 48 hours or DMSO control, followed by the addition of JQ-1, an inhibitor of BET proteins, at various concentrations (10 μM-0.0003 μM) or by the addition of panobinostat, an inhibitor of HDAC, at various concentrations (10 μM-0.0003 μM) for 48 additional hours. At completion, cell viability was measured by Cell Titer GLO reagent. IC50 values were determined for JQ-1 and panobinostat with and without the low dose of alvocidib. Addition of 20 nM alvocidib increased the potency of JQ-1, as shown by an IC50 value of 2-fold lower.

MV4-11 cells = assay: MV4-11 subcutaneous xenograft, tumor volume by caliper; assay type: in vivo, athymic Nu/Nu mice; settings: for effect on tumor volume: 25 mg/kg JQ-1, 2.5 mg/kg alvocidib or both, intraperitoneally once daily for 5 days, total of 3 weeks
Source text: (§2) The AML cell line, MV4-11 is MLL fusion and FLT3-ITD positive. The MLL fusion makes this cell line particularly dependent upon super-enhancer function for driving oncogenesis. MV4-11 cells were implanted subcutaneously in athymic Nu/Nu mice and allowed to establish until tumors reached 100-200 mm^3. JQ-1, a BET protein inhibitor, and alvocidib, a Cdk inhibitor, were used alone and in combination in order to determine the effect of the drug(s) on tumor volume. Animals were stratified into 4 groups and administered one of four treatments: vehicle, 25 mg/kg JQ-1, 2.5 mg/kg alvocidib, or a combination of the two drugs at these doses. The drugs were administered intraperitoneally, once daily for 5 days, for a total of 3 weeks. Tumor volume was measured twice weekly by caliper measurement. […] Weight gain in vehicle and individual drug-treated mice could be attributed to tumor growth. Weight gain in the mice given the combination treatment could be attributed to the overall health and food intake of the mice.

MOLM13 = assay: Cell viability by Cell Titer GLO, MOLM13; assay type: cell-based; settings: for IC50: MOLM13, then 48 h inhibitor
Protocol: as §1

c-MYC = c-MYC expression by RT-qPCR in MV4-11 cells; assay type: cell-based; settings: 2 hours, various concentrations
Protocol: The c-MYC gene is well known to be regulated by the super-enhancer complex in AML cells. JQ-1, a BET protein inhibitor, and alvocidib, a Cdk inhibitor, were used alone and in combination in order to determine the effect of the drug(s) on c-MYC expression. MV4-11 cells were treated with various concentrations of alvocidib and/or JQ-1 for 2 hours. DMSO-treated controls were also included. Treatment was stopped by lysing the cells and isolating RNA for RT-qPCR analysis. The expression of c-MYC was determined and normalized to the housekeeping gene, HPRT1 and to the DMSO-treated control.

[1] = Body weight of MV4-11 xenograft mice; assay type: in vivo, athymic Nu/Nu mice; settings: throughout the study; 25 mg/kg JQ-1, 2.5 mg/kg alvocidib or both
Source text: as §2

MCL-1 and c-MYC/N-MYC [2] = assay: Protein expression by western blotting in A549 cells; assay type: cell-based, human; settings: 100 nM, time course
Protocol: (§3) A549 cells and SK-N-AS cells (human adrenal neuroblastoma cell line) were seeded and treated with alvocidib at concentrations of 100 nM and 300 nM respectively. Cells were collected at given times and total protein was extracted and detected using western blotting.

MCL-1 and c-MYC/N-MYC [3] = assay: Protein expression by western blotting in SK-N-AS cells; assay type: cell-based, human; settings: 300 nM, time course
Protocol: as §3

MCL-1 [4] = assay: MCL-1 mRNA expression time course in MV4-11 cells, RT-qPCR; assay type: cell-based; settings: MV4-11, 100 nM
Protocol: MV4-11 cells were seeded and treated with alvocidib at a concentration of 100 nM. […] Cells were harvested and detection of mRNA was carried out using RT-qPCR analysis in the manner described in previous examples. Expression of MCL-1 was compared to expression of controls and untreated cells. […] There appears to be no inhibition on expression by the 3 hour time point.

[5] = tested on: super enhancer complex regulated genes; assay: Super enhancer complex regulated genes, mRNA expression in A549 cells; assay type: cell-based, human
Protocol: A549 cells are adenocarcinomic human alveolar basal epithelial cells used as a type II pulmonary epithelial model (solid tumor). These cells were seeded and treated with alvocidib in identical concentrations and doses. Treatment was stopped by lysing the cells and isolating RNA for RT-qPCR analysis. […] The expression of mRNA was determined and normalized to β-actin and the control.

CDK9 and Hexim1 = CDK9 and Hexim1 (Homo sapiens, UniProt P50750); assay: CDK9/Hexim1 association, immunoprecipitation and western blotting in MV4-11 cells; assay type: cell-based
Protocol: MV4-11 cells were seeded and treated with alvocidib in identical concentrations and doses. Cells were collected at given times and subjected to high salt lysis buffer and immunoprecipitation followed by western blotting. […] FIGS. 11A and 11B provide results of a dose escalation study performed according to the above general procedure. […] Representative western blot is provided in FIG. 11A with quantification of the western blot in FIG. 11B.
Representative western blot is provided in FIG. 12A with quantification of the western blot in FIG. 12B.

MYC [6] = assay: MYC mRNA expression in A549 cells, RT-qPCR; assay type: cell-based, human; settings: 0-8 μM, 2 hours
Protocol: (§5) A549 cells were seeded and treated with alvocidib at concentrations ranging from 0-8 μM for 2 hours. Following the treatment of solid tumor cells, cells were harvested and mRNA was detected using RT-qPCR in the manner described in previous examples.

MYC [7] = assay: MYC expression relative to HPRT in MV4-11 cells; assay type: cell-based; settings: alvocidib single agent, two hours
Protocol: (§4) To determine the MYC and MCL-1 inhibitory activity of alvocidib, MV4-11 cells were treated with alvocidib for two hours and the expression of MYC and MCL-1 relative to HPRT was determined.

MCL-1 [8] = assay: MCL-1 mRNA expression in A549 cells, RT-qPCR; assay type: cell-based, human; settings: 0-8 μM, 2 hours
Protocol: as §5

MCL-1 [9] = assay: MCL-1 expression relative to HPRT in MV4-11 cells; assay type: cell-based; settings: alvocidib single agent, two hours
Protocol: as §4

MCL-1 [10] = assay: MCL-1 mRNA expression in A549 cells, alvocidib with JQ-1, RT-qPCR; assay type: cell-based, human; settings: JQ-1 0 nM-50 nM 1 hour, then alvocidib 0 nM-100 nM 2 hours
Protocol: A549 cells were seeded and treated with alvocidib at concentrations ranging from 0 nM-100 nM in combination with JQ-1 at concentrations ranging from 0 nM-50 nM. Cells were first treated with JQ-1 for 1 hour followed by treatment with alvocidib for 2 hours.

CDK9 and Hexim1, sequence (P50750 whole entry): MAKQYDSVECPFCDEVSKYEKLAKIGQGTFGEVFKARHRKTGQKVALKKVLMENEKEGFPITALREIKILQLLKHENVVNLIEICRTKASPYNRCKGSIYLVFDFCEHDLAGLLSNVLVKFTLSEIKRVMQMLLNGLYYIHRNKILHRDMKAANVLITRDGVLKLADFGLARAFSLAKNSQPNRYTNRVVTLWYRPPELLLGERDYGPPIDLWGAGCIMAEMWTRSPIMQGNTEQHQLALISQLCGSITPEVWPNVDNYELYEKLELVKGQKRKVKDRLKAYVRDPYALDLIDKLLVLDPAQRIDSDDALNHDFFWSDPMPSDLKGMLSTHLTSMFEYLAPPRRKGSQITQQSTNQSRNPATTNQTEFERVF
CDK9 and Hexim1, sequence (O60563 whole entry partner): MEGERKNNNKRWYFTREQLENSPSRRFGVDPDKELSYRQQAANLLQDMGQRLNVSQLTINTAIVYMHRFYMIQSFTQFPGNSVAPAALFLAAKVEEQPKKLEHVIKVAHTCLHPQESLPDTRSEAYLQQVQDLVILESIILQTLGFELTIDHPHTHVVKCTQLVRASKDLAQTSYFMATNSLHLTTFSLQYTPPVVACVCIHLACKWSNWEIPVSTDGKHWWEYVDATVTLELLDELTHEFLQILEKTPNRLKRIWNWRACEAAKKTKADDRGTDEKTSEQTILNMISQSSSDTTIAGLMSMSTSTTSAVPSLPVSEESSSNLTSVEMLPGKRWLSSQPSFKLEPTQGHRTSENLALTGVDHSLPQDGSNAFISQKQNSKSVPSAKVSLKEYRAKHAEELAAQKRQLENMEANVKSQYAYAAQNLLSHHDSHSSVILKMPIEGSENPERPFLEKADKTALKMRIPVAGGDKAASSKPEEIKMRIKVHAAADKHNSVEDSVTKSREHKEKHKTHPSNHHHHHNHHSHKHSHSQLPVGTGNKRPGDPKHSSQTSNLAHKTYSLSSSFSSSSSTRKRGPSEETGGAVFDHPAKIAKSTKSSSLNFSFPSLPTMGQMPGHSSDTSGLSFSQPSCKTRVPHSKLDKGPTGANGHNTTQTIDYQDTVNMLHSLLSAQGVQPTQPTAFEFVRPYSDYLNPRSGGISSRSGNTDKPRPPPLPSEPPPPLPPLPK

Structure (SMILES): Cc1sc2c(c1C)C(c1ccc(Cl)cc1)=N[C@@H](CC(=O)OC(C)(C)C)c1nnc(C)n1-2 [JQ-1]
- IC50 (MV4-11; 20 nM alvocidib 48 h): 133 nM
- IC50 (MV4-11; without alvocidib (DMSO 48 h)): 228 nM
- effect on tumor volume (MV4-11 cells): no measurable activity
- IC50 (MOLM13; 20 nM alvocidib 48 h): 209 nM
- IC50 (MOLM13; without alvocidib (DMSO 48 h)): 526 nM
- fold lower IC50 on addition of 20 nM alvocidib (MOLM13; MOLM13 and MV4-11): 2 fold
- expression of c-MYC normalized to HPRT1 and DMSO control (c-MYC): downregulated
- body weight [1]: comparable

Structure (SMILES): Cc1[nH]c2ccccc2c1CCNCc1ccc(/C=C/C(=O)NO)cc1 [Panobinostat, panobinostat]
- IC50 (MV4-11; Homo sapiens, MV4-11, 48 h, 20 nM alvocidib 48 h): 3 nM
- IC50 (MV4-11; Homo sapiens, MV4-11, 48 h, without alvocidib (DMSO 48 h)): 18 nM
- IC50 (MOLM13; Homo sapiens, MOLM-13, 48 h, 20 nM alvocidib 48 h): 5 nM
- IC50 (MOLM13; Homo sapiens, MOLM-13, 48 h, without alvocidib (DMSO 48 h)): 16 nM

Structure (SMILES): CN1CC[C@H](c2c(O)cc(O)c3c(=O)cc(-c4ccccc4Cl)oc23)[C@H](O)C1 [alvocidib]
- protein expression of MCL-1 and c-MYC/N-MYC (MCL-1 and c-MYC/N-MYC [2]): represses protein expression
- protein expression of MCL-1 and c-MYC/N-MYC (MCL-1 and c-MYC/N-MYC [3]): represses protein expression
- tumor size relative to vehicle (MV4-11 cells; 2.5 mg/kg alvocidib i.p., throughout the study): approximately 50%
- effect on tumor volume (MV4-11 cells): moderate activity
- MCL-1 mRNA expression (MCL-1 [4]; 30 minute time point): repressed
- MCL-1 mRNA expression (MCL-1 [4]; 1 hour post-dose): maximum repression
- MCL-1 mRNA expression (MCL-1 [4]; 2 hour time point): repression is reduced
- MCL-1 mRNA expression (MCL-1 [4]; 3 hour time point): no inhibition
- mRNA expression ([5]; 0.1 μM dose, 2 hour time point): noticeably repressed
- expression of mRNA normalized to β-actin and control ([5]; 24 and 48 hour time points): downregulated the expression of mRNA completely
- mRNA expression relative to β-actin and vehicle control ([5]; doses of 1 μM up to 8 μM, 2 hours): Complete repression
- CDK9/Hexim1 association (CDK9 and Hexim1; 500 nM dose, half hour time point): increased CDK9/Hexim1 association
- association of CDK9 and Hexim1 (CDK9 and Hexim1; 1 mM alvocidib, time course): increases association of CDK9 and Hexim1 in a time dependent manner
- CDK9/Hexim1 association (CDK9 and Hexim1; 2 hr treatment, different doses): dose dependent increase
- expression of c-MYC normalized to HPRT1 and DMSO control (c-MYC): downregulated
- MYC mRNA expression relative to HPRT1 (MYC [6]): represses MYC mRNA expression in a dose dependent manner
- body weight [1]: comparable
- MYC expression (MYC [7]): completely eliminates
- MCL-1 mRNA expression relative to HPRT1 (MCL-1 [8]): represses MCL-1 mRNA expression in a dose dependent manner
- reduction of MCL-1 expression (MCL-1 [9]): 60%
- MCL-1 mRNA expression (MCL-1 [10]): represses MCL-1 mRNA expression
